Measured values published in patent publication US6737383B1, “Herbicidal oxadiazolidines” (priority 1999, dated 2004).

Tests used:
[1] = system: cocklebur; assay: Test B pre/postemergence cocklebur; assay type: in vivo, Xanthium strumarium
In short: (§1)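 Response is a visual 0-to-10 score relative to untreated plants, where 0 means no effect and 10 means complete control, taken twelve to sixteen days after application. Treatments went onto soil at planting and onto foliage of 1- to 4-leaf plants, using a surfactant-containing non-phytotoxic solvent.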

[2] = system: sugar beet; assay: Test B pre/postemergence sugar beet; assay type: in vivo, Beta vulgaris
In short: as §1

[3] = system: purple nutsedge; assay: Test B pre/postemergence purple nutsedge; assay type: in vivo, Cyperus rotundus
In short: as §1

[4] = system: rape; assay: Test B pre/postemergence rape; assay type: in vivo, Brassica napus
In short: as §1

[5] = system: bedstraw; assay: Test B pre/postemergence bedstraw; assay type: in vivo, Galium aparine
In short: as §1

[6] = system: surinam grass; assay: Test B pre/postemergence surinam grass; assay type: in vivo, Brachiaria decumbens
In short: as §1

[7] = system: crabgrass; assay: Test B pre/postemergence crabgrass; assay type: in vivo, Digitaria sanguinalis
In short: as §1

[8] = system: morningglory; assay: Test B pre/postemergence morningglory; assay type: in vivo, Ipomoea hederacea
In short: as §1

[9] = system: duck salad; assay: Test B flood test duck salad; assay type: in vivo, Heteranthera limosa
In short: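 Flood test on plants grown to the 2-leaf stage; treated plants kept in greenhouse twelve to sixteen days, then visually rated against controls on a 0 (no effect) to 10 (complete control) scale.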

[10] = system: pigweed; assay: Test B pre/postemergence pigweed; assay type: in vivo, Amaranthus retroflexus
In short: as §1

[11] = system: soybean; assay: Test B pre/postemergence soybean; assay type: in vivo, Glycine max
In short: as §1

[12] = system: velvetleaf; assay: Test B pre/postemergence velvetleaf; assay type: in vivo, Abutilon theophrasti
In short: as §1

[13] = system: corn; assay: Test B pre/postemergence corn; assay type: in vivo, Zea mays
In short: as §1

[14] = system: giant foxtail; assay: Test B pre/postemergence giant foxtail; assay type: in vivo, Setaria faberii
In short: as §1

[15] = system: wheat; assay: Test B pre/postemergence wheat; assay type: in vivo, Triticum aestivum
In short: as §1

[16] = Preemergence, Rate 125 g/ha, 0 is no effect, 10 is complete control
[17] = Preemergence, Rate 250 g/ha, scale 0 to 10, 0 is no effect, 10 is complete control
[18] = Rate 62 g/ha, Postemergence, scale of 0 to 10 where 0 is no effect and 10 is complete control
[19] = Rate 125 g/ha, Postemergence, scale 0 to 10
[20] = Rate 500 g/ha, Postemergence, scale 0 to 10
[21] = Preemergence, Rate 62 g/ha, scale of 0 to 10 where 0 is no effect and 10 is complete control
[22] = Preemergence, Rate 500 g/ha, scale 0 to 10 (0 no effect, 10 complete control)

Cc1ccccc1-n1c(=O)on(C(=O)N(c2ccc(Cl)cc2Cl)C(C)C)c1=O [Compound 185]
2: Cocklebur plant response rating [1, 20] | Crabgrass plant response rating [7, 21] | Morningglory plant response rating [8, 20] | Soybean plant response rating [11, 18] | Soybean plant response rating [11, 19]
4: Redroot pigweed plant response rating [10, 20]
3: Plant response rating (0 to 10; 0 is no effect, 10 is complete control), Bedstraw ([5]; Rate 250 g/ha, Postemergence) | Bedstraw plant response rating [5, 20] | Plant response rating (0 to 10; 0 is no effect, 10 is complete control), Redroot pigweed ([10]; Rate 250 g/ha, Postemergence) | Plant response rating (0 to 10; 0 is no effect, 10 is complete control), Soybean ([11]; Rate 250 g/ha, Postemergence) | Soybean plant response rating [11, 20]
6: Crabgrass plant response rating (0 to 10 scale) [7, 16]
0: Cocklebur plant response rating (0 to 10 scale) [1, 16] | Cocklebur plant response rating [1, 17] | Cocklebur plant response rating [1, 18] | Cocklebur plant response rating [1, 19] | Plant response rating (0 to 10; 0 is no effect, 10 is complete control), Cocklebur ([1]; Rate 250 g/ha, Postemergence) | Sugarbeets plant response rating [2, 21] | Sugarbeets plant response rating (0 to 10 scale) [2, 16] | Sugarbeets plant response rating [2, 17] | Sugarbeets plant response rating [2, 22] | Sugarbeets plant response rating [2, 18] | Sugarbeets plant response rating [2, 19] | Plant response rating (0 to 10; 0 is no effect, 10 is complete control), Sugarbeets ([2]; Rate 250 g/ha, Postemergence) | Sugarbeets plant response rating [2, 20] | Nutsedge plant response rating [3, 17] | Nutsedge plant response rating [3, 22] | Nutsedge plant response rating [3, 18] | Nutsedge plant response rating [3, 19] | Plant response rating (0 to 10; 0 is no effect, 10 is complete control), Nutsedge ([3]; Rate 250 g/ha, Postemergence) | Nutsedge plant response rating [3, 20] | Rape plant response rating [4, 21] | Rape plant response rating (0 to 10 scale) [4, 16] | Rape plant response rating [4, 17] | Rape plant response rating [4, 22] | Rape plant response rating [4, 18] | Rape plant response rating [4, 19] | Plant response rating (0 to 10; 0 is no effect, 10 is complete control), Rape ([4]; Rate 250 g/ha, Postemergence) | Rape plant response rating [4, 20] | Bedstraw plant response rating [5, 21] | Bedstraw plant response rating (0 to 10 scale) [5, 16] | Bedstraw plant response rating [5, 17] | Bedstraw plant response rating [5, 22] | Bedstraw plant response rating [5, 18] | Bedstraw plant response rating [5, 19] | B. signalgrass plant response rating [6, 21] | B. signalgrass plant response rating (0 to 10 scale) [6, 16] | B. signalgrass plant response rating [6, 17] | B. signalgrass plant response rating [6, 22] | B. signalgrass plant response rating [6, 18] | B. signalgrass plant response rating ([6]; Rate 125 g/ha, Postemergence, scale 0 (no effect) to 10 (complete control)) | Plant response rating, B. signalgrass ([6]; Rate 250 g/ha, Postemergence, scale 0 to 10, 0 is no effect, 10 is complete control) | B. signalgrass plant response rating ([6]; Rate 500 g/ha, Postemergence, scale 0 to 10, 0 no effect, 10 complete control) | Crabgrass plant response rating [7, 18] | Morningglory plant response rating [8, 21] | Morningglory plant response rating (0 to 10 scale) [8, 16] | Morningglory plant response rating [8, 17] | Morningglory plant response rating [8, 22] | Ducksalad plant response rating ([9]; Rate 62 g/ha, headed Pre-emergence (flood test species), scale 0 to 10 (0 no effect, 10 complete control)) | Ducksalad plant response rating ([9]; Rate 125 g/ha, Pre-emergence, flood test species, scale 0 to 10 where 0 is no effect and 10 is complete control) | Ducksalad plant response rating ([9]; Rate 250 g/ha, Pre-emergence, flood-test species, scale 0 to 10, 0 is no effect, 10 is complete control) | Plant response rating, Ducksalad ([9]; Rate 500 g/ha, headed Pre-emergence (flood test species), scale 0 to 10 (0 no effect, 10 complete control)) | Redroot pigweed plant response rating [10, 21] | Redroot pigweed plant response rating (0 to 10 scale) [10, 16] | Redroot pigweed plant response rating [10, 17] | Redroot pigweed plant response rating [10, 22] | Redroot pigweed plant response rating [10, 18] | Soybean plant response rating [11, 21] | Soybean plant response rating (0 to 10 scale) [11, 16] | Soybean plant response rating [11, 17] | Soybean plant response rating [11, 22] | Velvetleaf plant response rating [12, 21] | Velvetleaf plant response rating [12, 17] | Velvetleaf plant response rating [12, 22] | Velvetleaf plant response rating [12, 19] | Plant response rating (0 to 10; 0 is no effect, 10 is complete control), Velvetleaf ([12]; Rate 250 g/ha, Postemergence) | Corn plant response rating [13, 21] | Corn plant response rating (0 to 10 scale) [13, 16] | Corn plant response rating [13, 17] | Corn plant response rating [13, 22] | Corn plant response rating [13, 18] | Corn plant response rating [13, 19] | Plant response rating (0 to 10; 0 is no effect, 10 is complete control), Corn ([13]; Rate 250 g/ha, Postemergence) | Corn plant response rating [13, 20] | Giant foxtail plant response rating [14, 21] | Giant foxtail plant response rating [14, 18] | Giant foxtail plant response rating [14, 19] | Plant response rating (0 to 10; 0 is no effect, 10 is complete control), Giant foxtail ([14]; Rate 250 g/ha, Postemergence) | Wheat plant response rating [15, 21] | Wheat plant response rating [15, 17] | Wheat plant response rating [15, 22] | Wheat plant response rating [15, 19] | Plant response rating (0 to 10; 0 is no effect, 10 is complete control), Wheat ([15]; Rate 250 g/ha, Postemergence)
1: Crabgrass plant response rating [7, 19] | Crabgrass plant response rating [7, 20] | Morningglory plant response rating [8, 18] | Morningglory plant response rating [8, 19] | Plant response rating (0 to 10; 0 is no effect, 10 is complete control), Morningglory ([8]; Rate 250 g/ha, Postemergence) | Redroot pigweed plant response rating [10, 19] | Giant foxtail plant response rating [14, 20]
5: Giant foxtail plant response rating (0 to 10 scale) [14, 16]
7: Crabgrass plant response rating [7, 17]
9: Crabgrass plant response rating [7, 22] | Giant foxtail plant response rating [14, 17] | Giant foxtail plant response rating [14, 22]
